Measurements reported in PMC7321218, “Synthetic (E)-3-Phenyl-5-(phenylamino)-2-styryl-1,3,4-thiadiazol-3-ium Chloride Derivatives as Promising Chemotherapy Agents on Cell Lines Infected with HTLV-1” (Molecules, 2020).

Columns and labels:
[1] = system: MT2 cells (HTLV-1-infected cell line); assay: MTT cell viability assay, MT2 cells; type: cell-based; settings: Homo sapiens, 72 h incubation
Procedure: (§1) The 1 × 10^5 cells/mL were incubated with or without compounds 5a, 5b, 5c, 5d or DMSO (Sigma-Aldrich/Merck, St. Louis, MO, USA) at 37 °C in humidified atmosphere with a 5% CO2. After 72 h, the cellular viability was assessed using 5 mg/mL of 3-(4,5-dimethylthiazol-2-yl)-2,5-diphenyltetrazolium bromide (MTT, Sigma-Aldrich/Merck). Cells were incubated for 3 h, centrifuged, and formazan crystal was dissolved with DMSO. Plates were read on a Paradigma® spectrofluorometer (Molecular Devices, San Jose, CA, USA) at a 490 nm wavelength. Cell death was also evaluated using Propidium Iodide (Biolegend) exclusion after a 24 h culture under the same conditions described above. The fluorescence was examined by FACSCalibus flow cytometry (BD) and 10,000 events were acquired for the experimental data. Analysis was accomplished using Summit V4.0 or FlowJo software (Becton, Dickingson and Company, Santa Barbara, CA, USA).
(§2) Statistical analysis was performed by one-way analysis of variance (ANOVA) and means were compared using a Tukey post-test. The IC50 values were obtained using nonlinear regression. Data were analyzed using GraphPad Prism-5 software (GraphPad software, San Diego, CA, USA), and p ≤ 0.05 was considered statistically significant.

[2] = system: C91/PL cells (HTLV-1-infected); assay: MTT cell viability assay, C91/PL cells; type: cell-based; settings: 72 h incubation
Procedure: as §1, §2

Jurkat cells = assay: MTT cell viability assay, Jurkat cells; type: cell-based; settings: Homo sapiens, 72 h incubation
Procedure: as §1, §2

[3] = biological target: T1, human serum albumin (HSA) (Homo sapiens, UniProt P02768); assay: Steady-state fluorescence quenching of HSA; type: binding; settings: for Kd: Ka (modified Stern–Volmer binding constant); for ΔS°: van't Hoff, 296–310 K
T1 construct: three analogous domains (I, II, and III) having amino acid residues of 1–195, 196–383, and 384–585
T1 sequence (P02768 25-609): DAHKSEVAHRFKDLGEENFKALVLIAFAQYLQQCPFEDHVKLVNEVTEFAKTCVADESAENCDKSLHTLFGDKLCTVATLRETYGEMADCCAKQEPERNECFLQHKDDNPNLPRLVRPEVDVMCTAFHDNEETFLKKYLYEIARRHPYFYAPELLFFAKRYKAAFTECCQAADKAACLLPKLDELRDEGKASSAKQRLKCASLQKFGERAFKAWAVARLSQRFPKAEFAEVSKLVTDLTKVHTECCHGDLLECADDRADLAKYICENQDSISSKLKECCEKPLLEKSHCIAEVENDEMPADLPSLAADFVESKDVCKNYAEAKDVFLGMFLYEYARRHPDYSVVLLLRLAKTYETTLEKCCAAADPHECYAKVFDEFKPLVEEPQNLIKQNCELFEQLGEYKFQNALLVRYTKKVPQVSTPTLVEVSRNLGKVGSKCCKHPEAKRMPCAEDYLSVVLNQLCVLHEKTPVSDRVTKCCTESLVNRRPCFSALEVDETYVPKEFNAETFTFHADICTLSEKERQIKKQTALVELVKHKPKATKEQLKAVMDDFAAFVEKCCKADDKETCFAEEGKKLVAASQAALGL
Procedure: The steady-state fluorescence spectra were measured in the 290–450 nm range, at 296, 303, and 310 K, with the excitation wavelength at λ = 295 nm. To a 3.0 mL solution containing an appropriate concentration of HSA (1.00 × 10^−5 M), successive aliquots from a stock solution of each mesoionic under study (1.00 × 10^−3 M in DMSO) were added, with final concentrations of 0.17, 0.33, 0.50, 0.66, 0.83, 0.99, 1.15, and 1.32 × 10^−5 M. The addition was done manually by using a micro syringe. The inner filter correction for the observed steady-state fluorescence of HSA:mesoionic compounds was done in order to compensate for the absorption value of 5a–d at the excitation and emission wavelengths (295 and 340 nm, respectively) when applying Equation (1):(1) Fcor=Fobs10^[Aexc+Aem/2] where Fcor and Fobs are the corrected and observed steady-state fluorescence intensity values, respectively, while Aex and Aem represent absorbance values for each ligand at the excitation and emission wavelengths (λ = 295 and 340 nm, respectively).
The binding properties of each ligand toward HSA—Stern–Volmer quenching constant (KSV), bimolecular quenching rate constant (kq), modified Stern–Volmer binding constant (Ka), enthalpy change (ΔH°), entropy change (ΔS°), and Gibbs’ free energy change (ΔG°)—were calculated from the steady-state fluorescence quenching data according to Equations (2)–(5):(2) F0/F=1+kqτ0[Q]=1+KSV[Q] (3) F0/F0−F=1/f[Q]Ka+1/f (4) lnKa=−ΔH^0/RT+ΔS^0/R (5) ΔG^0=ΔH^0−TΔS^0 where F0 and F are the steady-state fluorescence intensities of HSA in the absence and presence of mesoionics, respectively. [Q] and τ0 are the ligand concentration and fluorescence lifetime, respectively, of the fluorophore in the absence of quencher (5.54 × 10^−9 s—experimental data, see Section 2.3.1). T, ƒ, and R are the temperature (296, 303, and 310 K), fraction of the initial fluorescence intensity that corresponds to fluorophore that is accessible to the quencher (f ≈ 1.0), and gas constant (8.3145 J/mol.K), respectively.

[4] = biological target: T1, human serum albumin (HSA); assay: Time-resolved fluorescence decay of HSA; type: binding; settings: HSA 1.00 × 10^−5 M with 1.32 × 10^−5 M compound, ca 298 K
Procedure: The time-resolved fluorescence decay of a 3.0 mL solution of HSA (1.00 × 10^−5 M, in phosphate buffer solution-PBS) was measured in the absence and presence of the maximum concentration of each mesoionic used in the steady-state fluorescence studies (1.32 × 10^−5 M) at room temperature (ca 298 K).

[5] = biological target: T1, human serum albumin (HSA); assay: Circular dichroism of HSA (secondary structure); type: binding; settings: CD, 310 K, 1.32 × 10^−5 M compound; for α-helix % of HSA at 222 nm: HSA alone 80.1%; for α-helix % of HSA at 208 nm: HSA alone 86.7%
Procedure: The CD spectra were recorded in the 200–250 nm range at 310 K for free serum albumin (1.00 × 10^−6 M) and for HSA with the higher concentration of each mesoionic used in the steady-state fluorescence studies (1.32 × 10^−5 M). Each spectrum was taken on the average of three scans. The obtained data were further converted into mean residue ellipticity (MRE) according to Equation (6):(6) MRE=θ/(10.n.l.Cp) where θ is the observed ellipticity (mdeg); n is the number of amino acid residues (585 to HSA), l is the length of the optical cuvette (1.0 cm), and Cp is the molar concentration of HSA (1.00 × 10^−6 M). The 5a–d induced helical content perturbation at 208 and 222 nm were calculated using Equation (7):(7) (A) α−helix%(−MRE208−4000)/(33000−4000)×100(B) α−helix%(−MRE222−2340)/(30300)×100 where MRE208 and MRE222 are the significant molar residual ellipticities (deg.cm^2/dmol) at 208 nm and 222 nm, respectively.

[6] = biological target: T1, human serum albumin (HSA); assay: Zeta potential of HSA (surface perturbation); type: binding; settings: for ζ (zeta potential of HSA): HSA with 1.32 × 10^−5 M compound, HSA alone −9.15 ± 1.79; for Conductance: ZP measurement, HSA with compound
Procedure: All zeta potential (ZP) measurements were performed with 10 runs at 298 K and results were reported in terms of ZP ± SD. The ZP was measured for the HSA solution (1.0 × 10^−5 M in PBS solution) without and in the presence of the mesoionic compounds at the maximum concentration used in the steady-state fluorescence experiments (1.32 × 10^−5 M) at room temperature (ca. 298 K).

SMILES: Cc1ccc(Nc2n[n+](-c3ccccc3)c(/C=C/c3ccccc3)s2)cc1.[Cl-] [5a, (E)-3-Phenyl-5-(4′-methylphenylamino)-2-styryl-1,3,4-thiadiazol-3-ium chloride]
- IC50 [1]: 1.51 µM
- IC50 [2]: 2.82 µM
- IC50 (Jurkat cells): 2.15 µM
- KSV (Stern–Volmer quenching constant) ([3]; 296 K): 1.19 ± 0.03 × 10^5 M^−1
- kq (bimolecular quenching rate constant) ([3]; 296 K): 2.15e+13 M⁻¹ s⁻¹
- ΔG° ([3]; 296 K): -6.62 kcal/mol
- KSV (Stern–Volmer quenching constant) ([3]; 303 K): 1.20 ± 0.03 × 10^5 M^−1
- kq (bimolecular quenching rate constant) ([3]; 303 K): 2.16e+13 M⁻¹ s⁻¹
- ΔG° ([3]; 303 K): -6.76 kcal/mol
- KSV (Stern–Volmer quenching constant) ([3]; 310 K): 1.21 ± 0.03 × 10^5 M^−1
- kq (bimolecular quenching rate constant) ([3]; 310 K): 2.18e+13 M⁻¹ s⁻¹
- ΔG° ([3]; 310 K): -6.91 kcal/mol
- Kd ([3]; 296 K): 13 µM
- Kd ([3]; 303 K): 13.3 µM
- Kd ([3]; 310 K): 13.7 µM
- ΔS° [3]: 8.46 ± 0.05 × 10^−2 kJ.mol^−1K^−1
- Relative % of τ1 [4]: 26.4%
- Relative % of τ2 [4]: 73.6%
- τ1 (HSA fluorescence lifetime) [4]: 1.61 ± 0.13 ns
- τ2 (HSA fluorescence lifetime) [4]: 5.38 ± 0.13 ns
- α-helix % of HSA at 222 nm [5]: 78.5%
- α-helix % of HSA at 208 nm [5]: 84.0%
- ζ (zeta potential of HSA) [6]: −8.62 ± 1.40 mV
- Conductance [6]: 29,615 µs

SMILES: Clc1ccc(Nc2n[n+](-c3ccccc3)c(/C=C/c3ccccc3)s2)cc1.[Cl-] [5c, (E)-3-Phenyl-5-(4′-chlorophenylamino)-2-styryl-1,3,4-thiadiazol-3-ium chloride]
- IC50 [1]: 6.15 µM
- IC50 [2]: 4.5 µM
- IC50 (Jurkat cells): 5.6 µM
- KSV (Stern–Volmer quenching constant) ([3]; 296 K): 1.30 ± 0.03 × 10^5 M^−1
- kq (bimolecular quenching rate constant) ([3]; 296 K): 2.35e+13 M⁻¹ s⁻¹
- ΔG° ([3]; 296 K): -6.72 kcal/mol
- KSV (Stern–Volmer quenching constant) ([3]; 303 K): 1.36 ± 0.04 × 10^5 M^−1
- kq (bimolecular quenching rate constant) ([3]; 303 K): 2.45e+13 M⁻¹ s⁻¹
- ΔG° ([3]; 303 K): -6.91 kcal/mol
- KSV (Stern–Volmer quenching constant) ([3]; 310 K): 1.40 ± 0.03 × 10^5 M^−1
- kq (bimolecular quenching rate constant) ([3]; 310 K): 2.53e+13 M⁻¹ s⁻¹
- ΔG° ([3]; 310 K): -7.1 kcal/mol
- Kd ([3]; 296 K): 11.7 µM
- Kd ([3]; 303 K): 11 µM
- Kd ([3]; 310 K): 10.4 µM
- ΔS° [3]: 11.6 ± 0.1 × 10^−2 kJ.mol^−1K^−1
- Relative % of τ1 [4]: 33.0%
- Relative % of τ2 [4]: 67.0%
- τ1 (HSA fluorescence lifetime) [4]: 1.68 ± 0.11 ns
- τ2 (HSA fluorescence lifetime) [4]: 5.66 ± 0.16 ns
- α-helix % of HSA at 222 nm [5]: 78.8%
- α-helix % of HSA at 208 nm [5]: 83.8%
- ζ (zeta potential of HSA) [6]: −8.77 ± 1.52 mV
- Conductance [6]: 29,622 µs

SMILES: Brc1ccc(Nc2n[n+](-c3ccccc3)c(/C=C/c3ccccc3)s2)cc1.[Cl-] [5d, (E)-3-Phenyl-5-(4′-bromophenylamino)-2-styryl-1,3,4-thiadiazol-3-ium chloride]
- IC50 [1]: 7.7 µM
- IC50 [2]: 5.25 µM
- IC50 (Jurkat cells): 2.27 µM
- KSV (Stern–Volmer quenching constant) ([3]; 296 K): 1.45 ± 0.02 × 10^5 M^−1
- kq (bimolecular quenching rate constant) ([3]; 296 K): 2.61e+13 M⁻¹ s⁻¹
- ΔG° ([3]; 296 K): -6.67 kcal/mol
- KSV (Stern–Volmer quenching constant) ([3]; 303 K): 1.54 ± 0.03 × 10^5 M^−1
- kq (bimolecular quenching rate constant) ([3]; 303 K): 2.79e+13 M⁻¹ s⁻¹
- ΔG° ([3]; 303 K): -6.86 kcal/mol
- KSV (Stern–Volmer quenching constant) ([3]; 310 K): 1.60 ± 0.03 × 10^5 M^−1
- kq (bimolecular quenching rate constant) ([3]; 310 K): 2.89e+13 M⁻¹ s⁻¹
- ΔG° ([3]; 310 K): -7.03 kcal/mol
- Kd ([3]; 296 K): 11.5 µM
- Kd ([3]; 303 K): 11.1 µM
- Kd ([3]; 310 K): 10.8 µM
- ΔS° [3]: 10.6 ± 0.1 × 10^−2 kJ.mol^−1K^−1
- Relative % of τ1 [4]: 29.8%
- Relative % of τ2 [4]: 70.2%
- τ1 (HSA fluorescence lifetime) [4]: 1.65 ± 0.10 ns
- τ2 (HSA fluorescence lifetime) [4]: 5.37 ± 0.13 ns
- α-helix % of HSA at 222 nm [5]: 77.7%
- α-helix % of HSA at 208 nm [5]: 82.0%
- ζ (zeta potential of HSA) [6]: −8.69 ± 1.50 mV
- Conductance [6]: 29,638 µs
